Assay results from PMC11637875, “Discovery of novel PARP1/NRP1 dual-targeting inhibitors with strong antitumor potency” (Frontiers in Pharmacology, 2024).

Legend:
Assay type in all cases: biochemical
Erk5 = Erk5 (Homo sapiens, UniProt Q13164); assay: Selectivity profile (123 kinase panel)
NuaK1 = NuaK1 (Homo sapiens, UniProt O60285); assay: Selectivity profile (123 kinase panel)
ALK6 = ALK6 (Homo sapiens, UniProt O00238); assay: Selectivity profile (123 kinase panel)
CK1γ2 = CK1γ2 (Homo sapiens, UniProt P78368); assay: Selectivity profile (123 kinase panel)
NEK9 = NEK9 (Homo sapiens, UniProt Q8TD19); assay: Selectivity profile (123 kinase panel)
MER = MER (Homo sapiens, UniProt Q12866); assay: Selectivity profile (123 kinase panel)
PARP9 = PARP9 (Homo sapiens, UniProt Q8IXQ6); assay: Selectivity profile (other isoforms of PARP and NRP family)
CSK = CSK (Homo sapiens, UniProt P41240); assay: Selectivity profile (123 kinase panel)
PARP12 = PARP12 (Homo sapiens, UniProt Q9H0J9); assay: Selectivity profile (other isoforms of PARP and NRP family)
HCK = HCK (Homo sapiens, UniProt P08631); assay: Selectivity profile (123 kinase panel)
FGFR2 = FGFR2 (Homo sapiens, UniProt P21802); assay: Selectivity profile (123 kinase panel)
MINK = MINK (Homo sapiens, UniProt Q8N4C8); assay: Selectivity profile (123 kinase panel)
PARP14 = PARP14 (Homo sapiens, UniProt Q460N5); assay: Selectivity profile (other isoforms of PARP and NRP family)
MLK3 = MLK3 (Homo sapiens, UniProt Q16584); assay: Selectivity profile (123 kinase panel)
EGFR = EGFR (Homo sapiens, UniProt P00533); assay: Selectivity profile (123 kinase panel)
AXL = AXL (Homo sapiens, UniProt P30530); assay: Selectivity profile (123 kinase panel)
BMX = BMX (Homo sapiens, UniProt P51813); assay: Selectivity profile (123 kinase panel)
GSK3β = GSK3β (Homo sapiens, UniProt P49841); assay: Selectivity profile (123 kinase panel)
LCK = LCK (Homo sapiens, UniProt P06239); assay: Selectivity profile (123 kinase panel)
CK1γ3 = CK1γ3 (Homo sapiens, UniProt Q9Y6M4); assay: Selectivity profile (123 kinase panel)
DYRK2 = DYRK2 (Homo sapiens, UniProt Q92630); assay: Selectivity profile (123 kinase panel)
MST2 = MST2 (Homo sapiens, UniProt Q13188); assay: Selectivity profile (123 kinase panel)
JAK3 = JAK3 (Homo sapiens, UniProt P52333); assay: Selectivity profile (123 kinase panel)
CK1γ1 = CK1γ1 (Homo sapiens, UniProt Q9HCP0); assay: Selectivity profile (123 kinase panel)
Erk7 = Erk7 (Homo sapiens, UniProt Q8TD08); assay: Selectivity profile (123 kinase panel)
EPHA8 = EPHA8 (Homo sapiens, UniProt P29322); assay: Selectivity profile (123 kinase panel)
CK1ε = CK1ε (Homo sapiens, UniProt P49674); assay: Selectivity profile (123 kinase panel)
DYRK1B = DYRK1B (Homo sapiens, UniProt Q9Y463); assay: Selectivity profile (123 kinase panel)
MARK2 = MARK2 (Homo sapiens, UniProt Q7KZI7); assay: Selectivity profile (123 kinase panel)
MUSK = MUSK (Homo sapiens, UniProt O15146); assay: Selectivity profile (123 kinase panel)
AKT2 = AKT2 (Homo sapiens, UniProt P31751); assay: Selectivity profile (123 kinase panel)
EPHA4 = EPHA4 (Homo sapiens, UniProt P54764); assay: Selectivity profile (123 kinase panel)
CSF1R = CSF1R (Homo sapiens, UniProt P07333); assay: Selectivity profile (123 kinase panel)
LOK = LOK (Homo sapiens, UniProt O94804); assay: Selectivity profile (123 kinase panel)
PARP7 = PARP7 (Homo sapiens, UniProt Q7Z3E1); assay: Selectivity profile (other isoforms of PARP and NRP family)
NEK2 = NEK2 (Homo sapiens, UniProt P51955); assay: Selectivity profile (123 kinase panel)
FGFR3 = FGFR3 (Homo sapiens, UniProt P22607); assay: Selectivity profile (123 kinase panel)
EPHA6 = EPHA6 (Homo sapiens, UniProt Q9UF33); assay: Selectivity profile (123 kinase panel)
PARP15 = PARP15 (Homo sapiens, UniProt Q460N3); assay: Selectivity profile (other isoforms of PARP and NRP family)
JNK3 = JNK3 (Homo sapiens, UniProt P53779); assay: Selectivity profile (123 kinase panel)
EPHB3 = EPHB3 (Homo sapiens, UniProt P54753); assay: Selectivity profile (123 kinase panel)

Measured: IC50

CK1ε, sequence (P49674 whole entry): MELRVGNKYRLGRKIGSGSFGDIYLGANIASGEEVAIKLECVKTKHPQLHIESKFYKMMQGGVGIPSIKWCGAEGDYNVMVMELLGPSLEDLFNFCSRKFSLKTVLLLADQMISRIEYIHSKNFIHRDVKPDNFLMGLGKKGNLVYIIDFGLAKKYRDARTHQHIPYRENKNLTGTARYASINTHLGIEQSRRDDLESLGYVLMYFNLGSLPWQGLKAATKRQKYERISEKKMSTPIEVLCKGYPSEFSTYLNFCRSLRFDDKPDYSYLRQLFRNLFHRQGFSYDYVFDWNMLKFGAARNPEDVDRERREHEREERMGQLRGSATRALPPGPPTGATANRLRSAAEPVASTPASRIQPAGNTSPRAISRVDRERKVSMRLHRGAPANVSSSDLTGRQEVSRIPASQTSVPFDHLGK
JNK3, sequence (P53779 whole entry): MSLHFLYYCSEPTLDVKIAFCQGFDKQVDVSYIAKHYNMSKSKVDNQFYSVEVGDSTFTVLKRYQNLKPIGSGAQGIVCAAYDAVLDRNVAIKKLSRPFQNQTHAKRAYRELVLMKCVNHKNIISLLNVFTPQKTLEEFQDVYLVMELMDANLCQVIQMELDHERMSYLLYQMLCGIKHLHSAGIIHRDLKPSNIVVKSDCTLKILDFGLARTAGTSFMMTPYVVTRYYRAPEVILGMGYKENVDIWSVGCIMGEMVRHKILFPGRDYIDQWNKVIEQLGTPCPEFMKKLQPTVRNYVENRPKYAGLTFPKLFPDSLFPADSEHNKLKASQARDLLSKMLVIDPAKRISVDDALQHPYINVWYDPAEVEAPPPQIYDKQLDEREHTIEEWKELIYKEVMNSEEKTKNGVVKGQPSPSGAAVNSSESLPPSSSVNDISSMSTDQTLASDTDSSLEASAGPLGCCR
Erk7, sequence (Q8TD08 whole entry, species assumed): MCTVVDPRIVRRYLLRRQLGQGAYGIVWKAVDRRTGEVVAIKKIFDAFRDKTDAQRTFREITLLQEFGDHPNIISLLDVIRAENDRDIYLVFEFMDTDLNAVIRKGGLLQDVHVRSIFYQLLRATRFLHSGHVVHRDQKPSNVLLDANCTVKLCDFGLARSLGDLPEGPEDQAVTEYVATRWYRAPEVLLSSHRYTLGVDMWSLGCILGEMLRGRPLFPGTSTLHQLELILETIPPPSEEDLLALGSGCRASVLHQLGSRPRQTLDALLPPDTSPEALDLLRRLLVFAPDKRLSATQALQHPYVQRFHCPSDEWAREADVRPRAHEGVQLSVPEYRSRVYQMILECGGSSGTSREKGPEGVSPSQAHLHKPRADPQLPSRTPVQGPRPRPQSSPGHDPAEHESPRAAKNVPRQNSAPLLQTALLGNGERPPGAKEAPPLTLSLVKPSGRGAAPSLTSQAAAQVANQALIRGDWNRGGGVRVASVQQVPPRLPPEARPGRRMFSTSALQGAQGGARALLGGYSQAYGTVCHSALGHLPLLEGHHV
DYRK2, sequence (Q92630 whole entry): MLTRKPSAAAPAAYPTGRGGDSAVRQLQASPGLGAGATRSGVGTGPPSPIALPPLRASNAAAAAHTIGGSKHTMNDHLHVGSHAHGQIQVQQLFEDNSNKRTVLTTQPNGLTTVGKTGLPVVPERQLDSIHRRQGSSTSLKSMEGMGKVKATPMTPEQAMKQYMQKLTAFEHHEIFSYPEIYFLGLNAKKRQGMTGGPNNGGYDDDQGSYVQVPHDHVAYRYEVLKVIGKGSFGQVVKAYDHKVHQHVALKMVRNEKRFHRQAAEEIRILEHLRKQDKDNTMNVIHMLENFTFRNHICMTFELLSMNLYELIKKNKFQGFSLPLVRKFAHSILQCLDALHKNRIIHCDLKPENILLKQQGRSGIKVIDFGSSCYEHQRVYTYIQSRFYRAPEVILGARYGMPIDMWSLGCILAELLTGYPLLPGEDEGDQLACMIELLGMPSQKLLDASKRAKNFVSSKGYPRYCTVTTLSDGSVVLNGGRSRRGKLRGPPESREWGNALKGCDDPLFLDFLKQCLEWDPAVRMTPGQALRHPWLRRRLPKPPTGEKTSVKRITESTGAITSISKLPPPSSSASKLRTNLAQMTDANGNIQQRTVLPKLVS
GSK3β, sequence (P49841 whole entry): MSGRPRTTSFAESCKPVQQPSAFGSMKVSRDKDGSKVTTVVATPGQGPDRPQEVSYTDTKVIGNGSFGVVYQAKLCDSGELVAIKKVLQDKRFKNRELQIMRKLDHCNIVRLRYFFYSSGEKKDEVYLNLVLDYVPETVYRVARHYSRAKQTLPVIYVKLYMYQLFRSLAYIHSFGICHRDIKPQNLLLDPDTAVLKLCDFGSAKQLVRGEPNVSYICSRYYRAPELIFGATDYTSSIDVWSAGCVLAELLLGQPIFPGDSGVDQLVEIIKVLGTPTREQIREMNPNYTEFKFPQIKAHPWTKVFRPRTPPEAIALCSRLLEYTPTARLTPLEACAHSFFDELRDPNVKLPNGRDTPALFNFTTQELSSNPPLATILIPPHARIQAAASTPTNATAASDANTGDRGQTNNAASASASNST
NuaK1, sequence (O60285 whole entry): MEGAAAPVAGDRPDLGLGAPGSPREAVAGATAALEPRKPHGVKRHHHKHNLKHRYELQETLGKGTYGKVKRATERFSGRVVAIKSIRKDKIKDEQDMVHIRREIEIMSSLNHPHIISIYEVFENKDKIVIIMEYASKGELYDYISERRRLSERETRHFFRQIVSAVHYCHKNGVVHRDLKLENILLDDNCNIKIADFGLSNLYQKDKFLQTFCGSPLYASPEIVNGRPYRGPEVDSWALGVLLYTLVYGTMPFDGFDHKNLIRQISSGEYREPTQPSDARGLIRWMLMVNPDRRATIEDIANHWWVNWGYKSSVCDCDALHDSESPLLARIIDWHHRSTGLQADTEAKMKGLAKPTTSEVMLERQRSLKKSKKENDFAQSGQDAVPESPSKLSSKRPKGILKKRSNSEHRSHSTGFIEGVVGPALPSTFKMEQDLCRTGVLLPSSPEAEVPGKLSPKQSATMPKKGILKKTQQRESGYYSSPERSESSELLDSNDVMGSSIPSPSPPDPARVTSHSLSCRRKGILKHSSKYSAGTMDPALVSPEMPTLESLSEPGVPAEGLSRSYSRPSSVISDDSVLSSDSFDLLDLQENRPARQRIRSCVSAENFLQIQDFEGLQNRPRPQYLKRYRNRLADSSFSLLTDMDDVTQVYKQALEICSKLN
MLK3, sequence (Q16584 whole entry): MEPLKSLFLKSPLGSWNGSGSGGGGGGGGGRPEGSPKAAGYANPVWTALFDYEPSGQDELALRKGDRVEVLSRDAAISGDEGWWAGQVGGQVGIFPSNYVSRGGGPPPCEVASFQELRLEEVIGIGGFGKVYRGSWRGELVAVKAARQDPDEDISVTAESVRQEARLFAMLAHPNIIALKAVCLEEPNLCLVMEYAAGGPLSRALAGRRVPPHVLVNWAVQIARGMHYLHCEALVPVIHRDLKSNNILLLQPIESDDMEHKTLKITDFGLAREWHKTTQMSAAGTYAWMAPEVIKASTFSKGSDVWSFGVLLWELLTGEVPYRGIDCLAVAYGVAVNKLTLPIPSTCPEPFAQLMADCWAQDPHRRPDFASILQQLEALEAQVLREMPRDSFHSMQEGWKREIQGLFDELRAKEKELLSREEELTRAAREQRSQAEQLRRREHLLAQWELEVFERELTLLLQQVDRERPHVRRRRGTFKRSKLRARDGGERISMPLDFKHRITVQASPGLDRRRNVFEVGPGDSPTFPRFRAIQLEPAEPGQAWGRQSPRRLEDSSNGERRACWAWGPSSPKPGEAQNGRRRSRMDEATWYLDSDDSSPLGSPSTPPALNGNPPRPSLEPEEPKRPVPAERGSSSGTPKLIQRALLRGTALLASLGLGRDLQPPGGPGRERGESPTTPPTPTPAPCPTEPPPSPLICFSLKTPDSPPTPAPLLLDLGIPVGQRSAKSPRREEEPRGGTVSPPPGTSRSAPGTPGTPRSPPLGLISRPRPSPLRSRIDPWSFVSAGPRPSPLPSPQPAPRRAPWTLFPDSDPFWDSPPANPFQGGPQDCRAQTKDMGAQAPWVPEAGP
EPHA4, sequence (P54764 20-986, species assumed): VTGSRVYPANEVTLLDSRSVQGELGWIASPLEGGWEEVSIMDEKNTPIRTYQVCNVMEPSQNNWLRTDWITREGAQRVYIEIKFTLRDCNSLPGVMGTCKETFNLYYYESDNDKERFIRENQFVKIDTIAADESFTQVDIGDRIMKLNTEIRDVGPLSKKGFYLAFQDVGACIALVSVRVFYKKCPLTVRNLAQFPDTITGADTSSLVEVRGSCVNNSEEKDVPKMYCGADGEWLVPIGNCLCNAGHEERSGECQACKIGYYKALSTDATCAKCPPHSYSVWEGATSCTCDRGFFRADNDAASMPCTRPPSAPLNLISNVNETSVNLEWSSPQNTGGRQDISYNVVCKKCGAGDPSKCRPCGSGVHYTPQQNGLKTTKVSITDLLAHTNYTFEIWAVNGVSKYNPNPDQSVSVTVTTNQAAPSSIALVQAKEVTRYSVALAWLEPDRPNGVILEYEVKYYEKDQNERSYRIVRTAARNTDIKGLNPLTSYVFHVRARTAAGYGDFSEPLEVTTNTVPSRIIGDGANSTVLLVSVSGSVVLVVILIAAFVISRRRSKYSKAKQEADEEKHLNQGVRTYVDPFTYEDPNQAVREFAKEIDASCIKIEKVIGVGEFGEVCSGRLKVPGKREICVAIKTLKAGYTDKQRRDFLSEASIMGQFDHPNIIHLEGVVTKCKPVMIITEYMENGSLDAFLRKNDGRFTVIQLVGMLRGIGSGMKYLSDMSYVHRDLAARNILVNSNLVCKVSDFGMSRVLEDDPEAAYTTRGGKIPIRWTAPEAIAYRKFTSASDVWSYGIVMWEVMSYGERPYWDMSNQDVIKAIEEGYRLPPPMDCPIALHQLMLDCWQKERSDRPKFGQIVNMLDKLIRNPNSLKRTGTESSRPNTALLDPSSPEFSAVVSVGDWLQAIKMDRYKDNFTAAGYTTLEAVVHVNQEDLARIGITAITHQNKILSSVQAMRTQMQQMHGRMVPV

NC(N)=NCCC[C@H](NCN1CCN(C(=O)c2cc(Cc3n[nH]c(=O)c4ccccc34)ccc2F)CC1)C(=O)O [PPNR-4]
> 10 µM: all assays above
